Test results reported in ChEMBL document CHEMBL4342417, “Design, synthesis and evaluation of novel phenothiazine derivatives as inhibitors of breast cancer stem cells” (Eur J Med Chem, 2019).
The source made the active and inactive calls. The calls are words filed in the database; no cut-off is given here.

Assays:
SUM-159-PT [1] = test: Antiproliferative activity against human SUM159 cells assessed as reduction in cell viability incubated for 2 days by MTT assay; format: functional, cell-based; settings: 48 h
MDA-MB-231 [2] = test: Antiproliferative activity against human MDA-MB-231 cells assessed as reduction in cell viability incubated for 2 days by MTT assay; format: functional, cell-based; settings: MDA-MB-231, 48 h
MCF7 [3] = test: Antiproliferative activity against human MCF7 cells assessed as reduction in cell viability incubated for 2 days by MTT assay; format: functional, cell-based; settings: MCF7, 48 h
SK-BR-3 [4] = test: Antiproliferative activity against human SKBR3 cells assessed as reduction in cell viability incubated for 2 days by MTT assay; format: functional, cell-based; settings: SK-BR-3, 48 h
SUM-159-PT [5] = test: Potency index, ratio of IC50 of TFP to IC50 of compound for antiproliferative activity against human SUM159 cells assessed as reduction in cell viability incubated for 2 days by MTT assay; format: functional
MDA-MB-231 [6] = test: Potency index, ratio of IC50 of TFP to IC50 of compound for antiproliferative activity against human MDA-MB-231 cells assessed as reduction in cell viability incubated for 2 days by MTT assay; format: functional
MCF7 [7] = test: Potency index, ratio of IC50 of TFP to IC50 of compound for antiproliferative activity against human MCF7 cells assessed as reduction in cell viability incubated for 2 days by MTT assay; format: functional
KG-1a = test: Antiproliferative activity against human KG1a cells assessed as reduction in cell viability incubated for 2 days by MTT assay; format: functional, cell-based; settings: 48 h
[8] = Toxicity in zebra fish assessed as survival rate at 250 uM observed for 24 hrs; set-up: species or system Danio rerio; settings: zebrafish
SK-BR-3 [9] = test: Potency index, ratio of IC50 of TFP to IC50 of compound for antiproliferative activity against human SKBR3 cells assessed as reduction in cell viability incubated for 2 days by MTT assay; format: functional
MCF7 [10] = test: Inhibition of colony formation in human MCF7 cells at 2.83 uM incubated for 14 days with replacement of medium for every 3 or 4 days by crystal violet staining based visual analysis relative to control; format: functional
SUM-159-PT [11] = test: Inhibition of mammosphere formation in human SUM159 cells assessed as reduction in number of mammosphere at 2 uM incubated for 10 days by microscopic analysis; format: functional
MDA-MB-231 [12] = test: Inhibition of cell migration of human MDA-MB-231 cells at 5.40 uM incubated for 48 hrs by scratch wound healing assay; format: functional, cell-based
MCF7 [13] = test: Inhibition of colony formation in human MCF7 cells at 0.18 uM incubated for 14 days with replacement of medium for every 3 or 4 days by crystal violet staining based visual analysis relative to control; format: functional
MCF7 [14] = test: Inhibition of colony formation in human MCF7 cells at 0.37 uM incubated for 14 days with replacement of medium for every 3 or 4 days by crystal violet staining based visual analysis relative to control; format: functional
MCF7 [15] = test: Inhibition of colony formation in human MCF7 cells at 0.74 uM incubated for 14 days with replacement of medium for every 3 or 4 days by crystal violet staining based visual analysis relative to control; format: functional
MCF7 [16] = test: Inhibition of colony formation in human MCF7 cells incubated for 14 days with replacement of medium for every 3 or 4 days by crystal violet staining based visual analysis; format: functional, cell-based
SUM-159-PT [17] = test: Inhibition of mammosphere formation in human SUM159 cells incubated for 10 days by microscopic analysis; format: functional, cell-based
SUM-159-PT [18] = test: Inhibition of mammosphere formation in human SUM159 cells assessed as reduction in number of mammosphere at 0.5 uM incubated for 10 days by microscopic analysis; format: functional
SUM-159-PT [19] = test: Inhibition of mammosphere formation in human SUM159 cells assessed as reduction in number of mammosphere at 1 uM incubated for 10 days by microscopic analysis; format: functional
MDA-MB-231 [20] = test: Inhibition of cell migration of human MDA-MB-231 cells incubated for 48 hrs by scratch wound healing assay; format: functional, cell-based
[21] = biological target: Transcription factor p65 (Homo sapiens) (UniProt Q04206); test: Inhibition of LPS-stimulated NF-kappaB-p65 in human MDA-MB-231 cells incubated for 24 hrs by dual luciferase reporter gene assay; format: cell-based
Transcription factor p65 (Homo sapiens), sequence (Q04206 whole entry): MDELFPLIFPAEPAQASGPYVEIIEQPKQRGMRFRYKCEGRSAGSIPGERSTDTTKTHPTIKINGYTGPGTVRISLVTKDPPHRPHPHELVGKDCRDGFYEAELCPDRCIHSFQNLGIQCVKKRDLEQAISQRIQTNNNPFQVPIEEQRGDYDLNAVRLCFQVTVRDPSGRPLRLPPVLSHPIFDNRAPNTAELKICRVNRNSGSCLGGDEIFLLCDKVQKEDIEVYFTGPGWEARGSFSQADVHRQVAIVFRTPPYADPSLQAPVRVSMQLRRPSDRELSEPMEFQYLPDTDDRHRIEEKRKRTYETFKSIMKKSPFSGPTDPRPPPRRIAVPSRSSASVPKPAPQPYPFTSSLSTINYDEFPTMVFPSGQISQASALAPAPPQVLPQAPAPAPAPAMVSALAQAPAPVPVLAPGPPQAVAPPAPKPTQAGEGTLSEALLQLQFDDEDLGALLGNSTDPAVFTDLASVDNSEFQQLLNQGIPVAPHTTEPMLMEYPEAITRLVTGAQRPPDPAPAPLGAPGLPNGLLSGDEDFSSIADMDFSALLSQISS

MDA-MB-231 [22] = test: Downregulation of NF-kappaB-p65 expression in human MDA-MB-231 cells incubated for 48 hrs by Western blot analysis; format: functional, cell-based

Compound | IC50 (MDA-MB-231 [2]) [µM] | IC50 (MCF7 [3]) [µM] | IC50 (SK-BR-3 [4]) [µM] | IC50 (SUM-159-PT [1]) [µM] | also measured
CSc1ccc2c(c1)N(CCCN1CCN(C(=O)CCC(=O)OCCCCOc3no[n+]([O-])c3S(=O)(=O)c3ccccc3)CC1)c1ccccc1S2 | 3.62 | 0.84 | 9.72 | 1.14 | Ratio IC50 (SUM-159-PT [5]): 6 - 15; Ratio IC50 (MDA-MB-231 [6]): 6; Ratio IC50 (MCF7 [7]): 4 - 13; IC50 (KG-1a): 1.14 µM; survival at 24 h, 250 µM [8]: 25.8%
O=C(CCC(=O)N1CCN(CCCN2c3ccccc3Sc3ccc(C(F)(F)F)cc32)CC1)OCCOc1no[n+]([O-])c1S(=O)(=O)c1ccccc1 | 7.09 | 1.36 | 1.51 | 2.2 | IC50 (KG-1a): 2.2 µM; survival at 24 h, 250 µM [8]: 25.8%
CSc1ccc2c(c1)N(CCCN1CCN(C(=O)CCC(=O)OCCOc3no[n+]([O-])c3S(=O)(=O)c3ccccc3)CC1)c1ccccc1S2 | 3.82 | 1.85 | 3.86 | 1.2 | IC50 (KG-1a): 1.2 µM; survival at 24 h, 250 µM [8]: 32.3%
O=C1CC(c2ccc(O)cc2)Oc2cc(O)c(CN3CCN(CCCN4c5ccccc5Sc5ccc(C(F)(F)F)cc54)CC3)c(O)c21 (configuration not stated) | > 50 | > 50 | > 50 | 25 | 
O=C(CCC(=O)N1CCN(CCCN2c3ccccc3Sc3ccc(C(F)(F)F)cc32)CC1)OCC#CCOc1no[n+]([O-])c1S(=O)(=O)c1ccccc1 | 5.89 | 7.26 | 18 | 5.44 | 
CSc1ccc2c(c1)N(CCCN1CCN(Cc3c(O)cc4c(c3O)C(=O)CC(c3ccccc3)O4)CC1)c1ccccc1S2 (configuration not stated) | > 50 | > 50 | > 50 | > 50 | 
O=C(CCC(=O)N1CCN(CCCN2c3ccccc3Sc3ccc(C(F)(F)F)cc32)CC1)NCCOc1no[n+]([O-])c1S(=O)(=O)c1ccccc1 | 6.04 | 6.96 | 1.77 | 1.98 | Ratio IC50 (SUM-159-PT [5]): 9; Ratio IC50 (MDA-MB-231 [6]): 4 - 15; Ratio IC50 (SK-BR-3 [9]): 4 - 9
O=C1CC(c2ccccc2)Oc2cc(O)c(CN3CCN(CCCN4c5ccccc5Sc5ccccc54)CC3)c(O)c21 (configuration not stated) | > 50 | > 50 | > 50 | > 50 | 
CN1CCN(CCCN2c3ccccc3Sc3ccc(C(F)(F)F)cc32)CC1 [TRIFLUOPERAZINE] | 21.6 | 11.3 | 15.9 | 17 | IC50 (KG-1a): 4.58 µM; inhibition at 2.83 µM (MCF7 [10]): 63.8%; Activity (SUM-159-PT [11]): 12; inhibition (MDA-MB-231 [12]): Active
O=C(CCC(=O)N1CCN(CCCN2c3ccccc3Sc3ccccc32)CC1)OCCCCOc1no[n+]([O-])c1S(=O)(=O)c1ccccc1 | 11.2 | 2.94 | 13.6 | 1.63 | Ratio IC50 (SUM-159-PT [5]): 6 - 15; Ratio IC50 (MCF7 [7]): 4 - 13; IC50 (KG-1a): 1.63 µM; survival at 24 h, 250 µM [8]: 64.5%; inhibition at 0.18 µM (MCF7 [13]): 64.4%; inhibition at 0.37 µM (MCF7 [14]): 33.1%; inhibition at 0.74 µM (MCF7 [15]): 11.6%; inhibition (MCF7 [16]): Dose-dependent effect; inhibition (SUM-159-PT [17]): Dose-dependent effect; Activity (SUM-159-PT [18]): 19; Activity (SUM-159-PT [19]): 8; Activity (SUM-159-PT [11]): 1; inhibition (MDA-MB-231 [20]): Dose-dependent effect; inhibition [21]: Dose-dependent effect; Activity (MDA-MB-231 [22]): Dose-dependent effect
CSc1ccc2c(c1)N(CCC1CCCCN1C)c1ccccc1S2 (configuration not stated) [THIORIDAZINE] | 14.2 |  | 18.2 | 14.5 | IC50 (KG-1a): 6.01 µM
CSc1ccc2c(c1)N(CCCN1CCN(C(=O)CCC(=O)NCCOc3no[n+]([O-])c3S(=O)(=O)c3ccccc3)CC1)c1ccccc1S2 | 3.41 | 12.2 | 2.68 | 9.34 | Ratio IC50 (MDA-MB-231 [6]): 4 - 15; Ratio IC50 (SK-BR-3 [9]): 4 - 9
OCCN(CCO)CCCN1c2ccccc2Sc2ccccc21 | > 50 | > 50 | > 50 | > 50 | 
O=C(CCC(=O)N1CCN(CCCN2c3ccccc3Sc3ccc(C(F)(F)F)cc32)CC1)OCCCCOc1no[n+]([O-])c1S(=O)(=O)c1ccccc1 | 10.2 | 1.35 | 64.6 | 2.93 | Ratio IC50 (SUM-159-PT [5]): 6 - 15; Ratio IC50 (MCF7 [7]): 4 - 13; IC50 (KG-1a): 2.93 µM; survival at 24 h, 250 µM [8]: 19.4%
CSc1ccc2c(c1)N(CCCN1CCN(C(=O)CCC(=O)OCCOCCOc3no[n+]([O-])c3S(=O)(=O)c3ccccc3)CC1)c1ccccc1S2 | 3.06 | 11.9 | 3.91 | 4.31 | Ratio IC50 (SUM-159-PT [5]): 4 - 9; Ratio IC50 (MDA-MB-231 [6]): 7; Ratio IC50 (SK-BR-3 [9]): 4
O=C1CC(c2ccc(O)cc2)Oc2cc(O)c(CN3CCN(CCCN4c5ccccc5Sc5ccccc54)CC3)c(O)c21 (configuration not stated) | > 50 | > 50 | > 50 | > 50 | 
COCCN(CCCN1c2ccccc2Sc2ccc(C(F)(F)F)cc21)CCOC | > 50 | > 50 | > 50 | 29.9 | 

Second part, led by results:

IC50 (MDA-MB-231 [2]) [µM] | IC50 (MCF7 [3]) [µM] | IC50 (SK-BR-3 [4]) [µM] | Compound | IC50 (SUM-159-PT [1]) [µM] | also measured
10.3 | 36.7 | 27.2 | CSc1ccc2c(c1)N(CCCN(CCO)CCO)c1ccccc1S2 | 24.6 | 
6.09 | 33.6 | 43.2 | OCCN(CCO)CCCN1c2ccccc2Sc2ccc(C(F)(F)F)cc21 | 46 | 
14.8 | 12.2 | 3.13 | O=C(CCC(=O)N1CCN(CCCN2c3ccccc3Sc3ccccc32)CC1)OCCOCCOc1no[n+]([O-])c1S(=O)(=O)c1ccccc1 | 1.95 | Ratio IC50 (SUM-159-PT [5]): 4 - 9; Ratio IC50 (SK-BR-3 [9]): 4
> 50 | > 50 | > 50 | CSc1ccc2c(c1)N(CCCN1CCN(Cc3c(O)cc4c(c3O)C(=O)CC(c3ccc(O)cc3)O4)CC1)c1ccccc1S2 (configuration not stated) | 32.2 | 
1.43 | 5.58 | 4.01 | O=C(CCC(=O)N1CCN(CCCN2c3ccccc3Sc3ccccc32)CC1)NCCOc1no[n+]([O-])c1S(=O)(=O)c1ccccc1 | 4.17 | Ratio IC50 (SUM-159-PT [5]): 4; Ratio IC50 (MDA-MB-231 [6]): 4 - 15; Ratio IC50 (SK-BR-3 [9]): 4 - 9
3.12 | 3.31 | 10.1 | O=C(CCC(=O)N1CCN(CCCN2c3ccccc3Sc3ccc(C(F)(F)F)cc32)CC1)OCCOCCOc1no[n+]([O-])c1S(=O)(=O)c1ccccc1 | 3.36 | Ratio IC50 (SUM-159-PT [5]): 4 - 9; Ratio IC50 (MDA-MB-231 [6]): 7; Ratio IC50 (MCF7 [7]): 3
45.1 | 29.8 | > 50 | COCCN(CCCN1c2ccccc2Sc2ccccc21)CCOC | 35.3 | 
> 50 | > 50 | > 50 | O=C1CC(c2ccccc2)Oc2cc(O)c(CN3CCN(CCCN4c5ccccc5Sc5ccc(C(F)(F)F)cc54)CC3)c(O)c21 (configuration not stated) | > 50 | 
40.5 | 6.09 | 31.9 | COCCN(CCCN1c2ccccc2Sc2ccc(SC)cc21)CCOC | 18.3 | 
20.2 | 4.32 | 2.63 | CSc1ccc2c(c1)N(CCCN1CCN(C(=O)CCC(=O)OCC#CCOc3no[n+]([O-])c3S(=O)(=O)c3ccccc3)CC1)c1ccccc1S2 | 3.97 | Ratio IC50 (SK-BR-3 [9]): 6
6.4 | 1.55 | 8.89 | O=C(CCC(=O)N1CCN(CCCN2c3ccccc3Sc3ccccc32)CC1)OCC#CCOc1no[n+]([O-])c1S(=O)(=O)c1ccccc1 | 2.85 | Ratio IC50 (MCF7 [7]): 7
